Like-named read-outs stand apart in the source and are kept apart here.
Key:
Format in all cases: physicochemical
[1] = Solid form stability on storage at 25° C. and 60% relative humidity; conditions: after 4 months at 25° C. and 60% relative humidity (RH)
[2] = Solubility (mg/mL) in water, buffers, simulated fluids and organic solvents (Table 1)
[3] = DVS water sorption isotherm, 25° C. scanned over 0 to 95% relative humidity (hygroscopicity)
Description: In various embodiments, the hygroscopicity of crystal forms of racemic amisulpride, enantiomeric amisulpride, and enantiomeric amisulpride solvates are characterized by dynamic vapor sorption (DVS). DVS is a gravimetric technique that measures how much of a solvent is absorbed by a sample by varying the vapor concentration surrounding the sample (e.g., relative humidity) and measuring the change in mass. In the present application, DVS is used to generate water sorption isotherms, which represent the equilibrium amount of vapor sorbed as a function of steady state relative vapor pressure at a constant temperature.

[4] = DVS, 25° C., 0 to 95% relative humidity

CCN1CCC[C@H]1CNC(=O)c1cc(S(=O)(=O)CC)c(N)cc1OC [(S)-amisulpride Form A′, S-4-Amino-N-[(1-ethyl-2-pyrrolidinyl)methyl]-5-(ethylsulfonyl)-2-methoxybenzamide]
thermodynamic stability of crystal form (conversion to other polymorphs or amorphous form) [1]: not substantially converting to other polymorphs or amorphous form
solubility ([2]; aqueous buffer, 0.05M Acetate Buffer, solution pH 4.5, read-out: Solubility (mg/mL): 0.05M Acetate Buffer): > 100 mg/mL
solubility ([2]; pH 1.1, Simulated Gastric Fluid (no enzyme), pH adjusted to 1.1 (Form A), 1.2 (Form A′), read-out: Solubility (mg/mL): Simulated Gastric Fluid (no enzyme)): > 100 mg/mL
solubility ([2]; pH 6.7, fassgf or other biorelevant, Simulated Intestinal Fluid (no enzyme), pH adjusted to 6.7 (Form A), 6.9 (Form A′), read-out: Solubility (mg/mL): Simulated Intestinal Fluid (no enzyme)): > 100 mg/mL
hygroscopicity [3, 4]: substantially non-hygroscopic (less than a 1% maximum mass change in water sorption isotherms, at 25 °C scanned over 0 to 95% relative humidity)
maximum mass change in water sorption isotherms [3, 4]: 0.35%
average maximum mass change based on the data of Tables 6B and 6C ([3]; DVS, Tables 6B and 6C only): about 0.16%
average maximum mass change ([3]; DVS, average over the samples of Tables 6A-6C (Form A′) or 6D-6E (Form A)): about 0.22%
Change Mass ([3]; FIG. 3D, RH 0 %, elapse time 60.72 min, sorption): 0.00 wt %
Change Mass ([3]; FIG. 3D, RH 1 %, elapse time 32.02 min, desorption): −0.01 wt %
Change Mass ([3]; FIG. 3D, RH 10 %, elapse time 31.00 min, desorption): 0.01 wt %
Change Mass ([3]; FIG. 3D, RH 10 %, elapse time 33.25 min, sorption): 0.03 wt %
Change Mass ([3]; FIG. 3D, RH 20 %, elapse time 31.89 min, sorption): 0.05 wt %
Change Mass ([3]; FIG. 3D, RH 20 %, elapse time 32.05 min, desorption): 0.03 wt %
Change Mass ([3]; FIG. 3D, RH 30 %, elapse time 32.20 min, sorption): 0.07 wt %
Change Mass ([3]; FIG. 3D, RH 30 %, elapse time 62.67 min, desorption): 0.05 wt %
Change Mass ([3]; FIG. 3D, RH 40 %, elapse time 31.41 min, desorption): 0.07 wt %
Change Mass ([3]; FIG. 3D, RH 40 %, elapse time 31.53 min, sorption): 0.09 wt %
Change Mass ([3]; FIG. 3D, RH 50 %, elapse time 31.95 min, sorption): 0.11 wt %
Change Mass ([3]; FIG. 3D, RH 50 %, elapse time 32.12 min, desorption): 0.08 wt %
Change Mass ([3]; FIG. 3D, RH 60 %, elapse time 31.87 min, sorption): 0.13 wt %
Change Mass ([3]; FIG. 3D, RH 60 %, elapse time 32.10 min, desorption): 0.11 wt %
Change Mass ([3]; FIG. 3D, RH 70 %, elapse time 31.10 min, sorption): 0.16 wt %
Change Mass ([3]; FIG. 3D, RH 70 %, elapse time 31.50 min, desorption): 0.14 wt %
Change Mass ([3]; FIG. 3D, RH 75 %, elapse time 31.01 min, desorption): 0.16 wt %
Change Mass ([3]; FIG. 3D, RH 75 %, elapse time 31.28 min, sorption): 0.18 wt %
Change Mass ([3]; FIG. 3D, RH 80 %, elapse time 31.43 min, sorption): 0.19 wt %
Change Mass ([3]; FIG. 3D, RH 80 %, elapse time 32.11 min, desorption): 0.17 wt %
Change Mass ([3]; FIG. 3D, RH 90 %, elapse time 31.35 min, desorption): 0.28 wt %
Change Mass ([3]; FIG. 3D, RH 90 %, elapse time 31.97 min, sorption): 0.25 wt %
Change Mass ([3]; FIG. 3D, RH 95 %, elapse time 32.77 min, sorption): 0.34 wt %
Change Mass ([3]; FIG. 3D, RH 95 %, elapse time 36.47 min, desorption): 0.35 wt %
Change Mass ([3]; FIG. 3E, RH 1.33 %, elapse time 60.4 min): 0.000 wt %
Change Mass ([3]; FIG. 3E, RH 5.06 %, elapse time 923.6 min): −0.028 wt %
Change Mass ([3]; FIG. 3E, RH 5.09 %, elapse time 590.9 min): −0.004 wt %
Change Mass ([3]; FIG. 3E, RH 5.15 %, elapse time 243.7 min): −0.010 wt %
Change Mass ([3]; FIG. 3E, RH 9.91 %, elapse time 260.3 min): −0.006 wt %
Change Mass ([3]; FIG. 3E, RH 9.94 %, elapse time 598.9 min): 0.000 wt %
Change Mass ([3]; FIG. 3E, RH 10.06 %, elapse time 582.9 min): 0.003 wt %
Change Mass ([3]; FIG. 3E, RH 10.08 %, elapse time 915.6 min): −0.023 wt %
Change Mass ([3]; FIG. 3E, RH 14.90 %, elapse time 606.9 min): 0.004 wt %
Change Mass ([3]; FIG. 3E, RH 14.99 %, elapse time 270.3 min): 0.000 wt %
Change Mass ([3]; FIG. 3E, RH 15.08 %, elapse time 574.9 min): 0.010 wt %
Change Mass ([3]; FIG. 3E, RH 15.12 %, elapse time 907.6 min): −0.017 wt %
Change Mass ([3]; FIG. 3E, RH 19.74 %, elapse time 278.3 min): 0.006 wt %
Change Mass ([3]; FIG. 3E, RH 19.88 %, elapse time 614.9 min): 0.009 wt %
Change Mass ([3]; FIG. 3E, RH 20.10 %, elapse time 566.9 min): 0.017 wt %
Change Mass ([3]; FIG. 3E, RH 20.12 %, elapse time 899.6 min): −0.012 wt %
Change Mass ([3]; FIG. 3E, RH 24.83 %, elapse time 623.9 min): 0.014 wt %
Change Mass ([3]; FIG. 3E, RH 24.90 %, elapse time 891.6 min): −0.007 wt %
Change Mass ([3]; FIG. 3E, RH 24.92 %, elapse time 287.8 min): 0.013 wt %
Change Mass ([3]; FIG. 3E, RH 24.95 %, elapse time 558.9 min): 0.024 wt %
Change Mass ([3]; FIG. 3E, RH 29.82 %, elapse time 296.8 min): 0.019 wt %
Change Mass ([3]; FIG. 3E, RH 29.84 %, elapse time 632.9 min): 0.019 wt %
Change Mass ([3]; FIG. 3E, RH 30.09 %, elapse time 551.4 min): 0.031 wt %
Change Mass ([3]; FIG. 3E, RH 30.10 %, elapse time 884.1 min): −0.001 wt %
Change Mass ([3]; FIG. 3E, RH 34.80 %, elapse time 305.8 min): 0.026 wt %
Change Mass ([3]; FIG. 3E, RH 34.87 %, elapse time 641.9 min): 0.024 wt %
Change Mass ([3]; FIG. 3E, RH 34.94 %, elapse time 875.6 min): 0.005 wt %
Change Mass ([3]; FIG. 3E, RH 34.95 %, elapse time 543.9 min): 0.038 wt %
Change Mass ([3]; FIG. 3E, RH 39.84 %, elapse time 314.8 min): 0.033 wt %
Change Mass ([3]; FIG. 3E, RH 39.90 %, elapse time 865.6 min): 0.011 wt %
Change Mass ([3]; FIG. 3E, RH 39.92 %, elapse time 533.9 min): 0.045 wt %
Change Mass ([3]; FIG. 3E, RH 39.94 %, elapse time 650.9 min): 0.028 wt %
Change Mass ([3]; FIG. 3E, RH 44.92 %, elapse time 659.9 min): 0.034 wt %
Change Mass ([3]; FIG. 3E, RH 45.02 %, elapse time 325.8 min): 0.040 wt %
Change Mass ([3]; FIG. 3E, RH 45.04 %, elapse time 523.9 min): 0.053 wt %
Change Mass ([3]; FIG. 3E, RH 45.07 %, elapse time 856.1 min): 0.018 wt %
Change Mass ([3]; FIG. 3E, RH 49.78 %, elapse time 334.8 min): 0.047 wt %
Change Mass ([3]; FIG. 3E, RH 49.88 %, elapse time 668.9 min): 0.040 wt %
Change Mass ([3]; FIG. 3E, RH 50.07 %, elapse time 845.0 min): 0.026 wt %
Change Mass ([3]; FIG. 3E, RH 50.10 %, elapse time 512.9 min): 0.060 wt %
Change Mass ([3]; FIG. 3E, RH 54.90 %, elapse time 345.8 min): 0.055 wt %
Change Mass ([3]; FIG. 3E, RH 54.96 %, elapse time 679.9 min): 0.046 wt %
Change Mass ([3]; FIG. 3E, RH 55.12 %, elapse time 501.9 min): 0.067 wt %
Change Mass ([3]; FIG. 3E, RH 55.14 %, elapse time 834.0 min): 0.035 wt %
Change Mass ([3]; FIG. 3E, RH 59.94 %, elapse time 356.8 min): 0.062 wt %
Change Mass ([3]; FIG. 3E, RH 59.95 %, elapse time 688.9 min): 0.053 wt %
Change Mass ([3]; FIG. 3E, RH 60.08 %, elapse time 490.9 min): 0.075 wt %
Change Mass ([3]; FIG. 3E, RH 60.19 %, elapse time 823.0 min): 0.044 wt %
Change Mass ([3]; FIG. 3E, RH 64.92 %, elapse time 699.9 min): 0.060 wt %
Change Mass ([3]; FIG. 3E, RH 65.00 %, elapse time 365.8 min): 0.071 wt %
Change Mass ([3]; FIG. 3E, RH 65.13 %, elapse time 814.0 min): 0.053 wt %
Change Mass ([3]; FIG. 3E, RH 65.14 %, elapse time 479.9 min): 0.081 wt %
Change Mass ([3]; FIG. 3E, RH 69.90 %, elapse time 710.9 min): 0.067 wt %
Change Mass ([3]; FIG. 3E, RH 69.95 %, elapse time 376.8 min): 0.081 wt %
Change Mass ([3]; FIG. 3E, RH 70.05 %, elapse time 468.9 min): 0.088 wt %
Change Mass ([3]; FIG. 3E, RH 70.16 %, elapse time 803.0 min): 0.062 wt %
Change Mass ([3]; FIG. 3E, RH 74.60 %, elapse time 385.8 min): 0.089 wt %
Change Mass ([3]; FIG. 3E, RH 74.67 %, elapse time 719.9 min): 0.074 wt %
Change Mass ([3]; FIG. 3E, RH 75.19 %, elapse time 457.9 min): 0.096 wt %
Change Mass ([3]; FIG. 3E, RH 75.43 %, elapse time 792.0 min): 0.073 wt %
Change Mass ([3]; FIG. 3E, RH 79.52 %, elapse time 728.9 min): 0.081 wt %
Change Mass ([3]; FIG. 3E, RH 79.61 %, elapse time 394.8 min): 0.098 wt %
Change Mass ([3]; FIG. 3E, RH 80.43 %, elapse time 783.0 min): 0.084 wt %
Change Mass ([3]; FIG. 3E, RH 80.44 %, elapse time 448.8 min): 0.105 wt %
Change Mass ([3]; FIG. 3E, RH 84.52 %, elapse time 403.8 min): 0.109 wt %
Change Mass ([3]; FIG. 3E, RH 84.80 %, elapse time 737.9 min): 0.090 wt %
Change Mass ([3]; FIG. 3E, RH 85.39 %, elapse time 774.0 min): 0.096 wt %
Change Mass ([3]; FIG. 3E, RH 85.43 %, elapse time 439.8 min): 0.117 wt %
Change Mass ([3]; FIG. 3E, RH 89.49 %, elapse time 412.8 min): 0.123 wt %
Change Mass ([3]; FIG. 3E, RH 89.52 %, elapse time 746.9 min): 0.103 wt %
Change Mass ([3]; FIG. 3E, RH 90.18 %, elapse time 430.8 min): 0.129 wt %
Change Mass ([3]; FIG. 3E, RH 90.24 %, elapse time 765.0 min): 0.109 wt %
Change Mass ([3]; FIG. 3E, RH 94.51 %, elapse time 421.8 min): 0.142 wt %
Change Mass ([3]; FIG. 3E, RH 94.81 %, elapse time 756.0 min): 0.122 wt %
Change Mass ([3]; FIG. 3F, RH 19.77 %, elapse time 317.2 min): 0.035 wt %
Change Mass ([3]; FIG. 3F, RH 24.90 %, elapse time 326.2 min): 0.042 wt %

Reference: US10577317B2, “Crystal forms and production methods thereof” (Sunovion Pharmaceuticals Inc., priority 2017, dated 2020)
